Test results taken from ChEMBL document CHEMBL3045440, “Determination of stereoselective interaction between enantiomers of chiral gamma-aryl-1H-1,2,4-triazole derivatives and Penicillium digitatum” (J Agric Food Chem, 2009).
Converted amounts (≈) assume the structure as drawn.

Key:
[1] = test system: Penicillium digitatum; assay: Fungicidal activity against Penicillium digitatum at 26 degC after 48 hr by growth inhibition test; assay type: functional, organism-based
[2] = test system: Penicillium digitatum; assay: Fungicidal activity against Penicillium digitatum at 50 mg/l at 26 degC after 48 hr by growth inhibition test; assay type: functional; conditions: read-out: GI
[3] = molecular target: T1, Cytochrome P450 14alpha-demethylase (Penicillium digitatum, UniProt A1XG20); assay: Binding affinity to Penicillium digitatum CYP51 expressed in Escherichia coli BL21 (DE3) cells by binding spectrum method
T1 sequence (A1XG20 whole entry): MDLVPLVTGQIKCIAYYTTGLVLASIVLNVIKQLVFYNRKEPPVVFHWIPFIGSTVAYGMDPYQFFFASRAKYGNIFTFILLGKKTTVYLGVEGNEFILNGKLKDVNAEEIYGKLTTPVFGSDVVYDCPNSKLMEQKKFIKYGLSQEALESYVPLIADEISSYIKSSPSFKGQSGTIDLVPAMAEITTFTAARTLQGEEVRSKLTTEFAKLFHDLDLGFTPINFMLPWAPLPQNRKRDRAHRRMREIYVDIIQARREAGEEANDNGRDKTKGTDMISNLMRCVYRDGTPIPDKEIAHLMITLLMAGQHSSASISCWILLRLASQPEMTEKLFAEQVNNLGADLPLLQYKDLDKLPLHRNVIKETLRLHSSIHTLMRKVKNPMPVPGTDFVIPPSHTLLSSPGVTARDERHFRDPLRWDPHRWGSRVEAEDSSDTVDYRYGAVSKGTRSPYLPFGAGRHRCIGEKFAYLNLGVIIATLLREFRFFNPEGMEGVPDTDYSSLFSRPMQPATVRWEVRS

[4] = molecular target: T1, Cytochrome P450 14alpha-demethylase; assay: Binding affinity to Penicillium digitatum CYP51 expressed in Escherichia coli BL21 (DE3) cells assessed as absorption spectral changes with maximum at 420-430 nm and trough at 385-400 nm (type II) by binding spectrum method
[5] = molecular target: T1, Cytochrome P450 14alpha-demethylase; assay: Binding affinity to Penicillium digitatum CYP51 expressed in Escherichia coli BL21 (DE3) cells assessed as absorption spectral changes with maximum at 390 nm and trough at 420 nm (type I) by binding spectrum method
[6] = molecular target: T1, Cytochrome P450 14alpha-demethylase; assay: Binding affinity to Penicillium digitatum CYP51 expressed in Escherichia coli BL21 (DE3) cells assessed as absorption spectral changes with maximum at 420-430 nm and trough at 390-410 nm (type II) by binding spectrum method

Row | Kd ([3]; read-out: Kd) [nM] | Activity [4] | Kd ([3]; bl21-de3) | SMILES | EC50 [1] [µg/mL] | inhibition of growth at 50 µg/mL [2] [%] | Activity [5] | Activity [6]
1 | 34 | Active |  | CC[C@H](CCn1cncn1)c1ccccc1 | 0.577 (≈ 2.68 µM) | 84 |  | 
2 | 1660 | Active |  | CC[C@@H](CCn1cncn1)c1ccccc1 | 89.6 (≈ 416 µM) | 20 |  | 
3 | 81 | Active |  | CC[C@H](CCn1cncn1)c1ccc(F)cc1 |  | 88 |  | 
4 | 230 | Active |  | CC[C@@H](CCn1cncn1)c1ccc(F)cc1 |  | 78 |  | 
5 | 150 | Active |  | CC[C@H](CCn1cncn1)c1ccc(Cl)cc1 | 0.587 (≈ 2.35 µM) | 92 |  | 
6 | 1140 | Active |  | CC[C@@H](CCn1cncn1)c1ccc(Cl)cc1 | 61.1 (≈ 245 µM) | 23 |  | 
7 | 63 | Active |  | CC[C@H](CCn1cncn1)c1ccc(OC)cc1 |  | 89 |  | 
8 | 505 | Active |  | CC[C@@H](CCn1cncn1)c1ccc(OC)cc1 |  | 77 |  | 
9 | 140 | Active |  | CCC[C@H](CCn1cncn1)c1ccccc1 |  | 90 |  | 
10 | 210 | Active |  | CCC[C@@H](CCn1cncn1)c1ccccc1 |  | 79 |  | 
11 | 250 | Active |  | CCC[C@H](CCn1cncn1)c1ccc(F)cc1 |  | 89 |  | 
12 |  |  | Not Active | CCC[C@@H](CCn1cncn1)c1ccc(F)cc1 |  | 78 |  | 
13 | 150 | Active |  | CCC[C@H](CCn1cncn1)c1ccc(OC)cc1 | 0.603 (≈ 2.33 µM) | 90 |  | 
14 |  |  | Not Active | CCC[C@@H](CCn1cncn1)c1ccc(OC)cc1 | 138 (≈ 534 µM) | < 5 |  | 
15 | 760 | Active |  | CCCC[C@H](CCn1cncn1)c1ccccc1 |  | 73 |  | 
16 |  |  | Not Active | CCCC[C@@H](CCn1cncn1)c1ccccc1 |  | 65 |  | 
17 | 90 | Active |  | CCCC[C@H](CCn1cncn1)c1ccc(F)cc1 | 0.88 (≈ 3.37 µM) | 100 |  | 
18 | 150 | Active |  | CCCC[C@@H](CCn1cncn1)c1ccc(F)cc1 | 1.15 (≈ 4.4 µM) | 95 |  | 
19 | 350 | Active |  | CCCC[C@H](CCn1cncn1)c1ccc(Cl)cc1 |  | 88 |  | 
20 | 340 |  |  | CCCC[C@@H](CCn1cncn1)c1ccc(Cl)cc1 |  | 83 | Active | 
21 | 49 | Active |  | CCCC[C@H](CCn1cncn1)c1ccc(OC)cc1 | 0.62 (≈ 2.27 µM) | 100 |  | 
22 | 180 | Active |  | CCCC[C@@H](CCn1cncn1)c1ccc(OC)cc1 | 0.97 (≈ 3.55 µM) | 97 |  | 
23 | 46 | Active |  | CCCC[C@H](CCn1cncn1)c1ccc(C)cc1 |  | 93 |  | 
24 | 1220 | Active |  | CCCC[C@@H](CCn1cncn1)c1ccc(C)cc1 |  | 87 |  | 
25 |  |  |  | CC(C)(C)C(O)/C(=C/c1ccc(Cl)cc1Cl)n1cncn1 (stereo not given) [DINICONAZOLE] | 0.09 (≈ 0.276 µM) | 100 |  | 

Row | SMILES | Kd ([3]; read-out: Kd) [nM] | Activity [4] | Kd ([3]; bl21-de3) | EC50 [1] [µg/mL] | inhibition of growth at 50 µg/mL [2] [%] | Activity [5] | Activity [6]
26 | CC(C)(C)C(O)/C(=C\c1ccc(Cl)cc1Cl)n1cncn1 (stereo not given) [DINICONAZOLE] | 120 |  |  |  |  |  | Active
27 | CC(C)(C)C(O)(CCc1ccc(Cl)cc1)Cn1cncn1 (stereo not given) [TEBUCONAZOLE] | 320 |  |  | 0.37 (≈ 1.2 µM) | 100 | Active | 
28 | CC(C)(C)C(=O)C(Oc1ccc(Cl)cc1)n1cncn1 (stereo not given) [TRIADIMEFON] | 990 |  |  | 2.27 (≈ 7.73 µM) | 100 |  | Active
29 | CC(C)(C)C(O)C(Oc1ccc(Cl)cc1)n1cncn1 (stereo not given) [TRIADIMENOL] | 640 |  |  | 1.44 (≈ 4.87 µM) | 100 |  | Active
